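Each compound was tested at five concentrations against cells in 96-well plates for 48 hours. Here, GI50 denotes the concentration required for 50% inhibition of growth.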 Activity calls are given as the source filed them. No stated cut-off is given here; in the data, active = GI50 up to about 1.1 µM and inactive = higher.
Assays:
Assay in all cases: growth of human tumour cells (NCI), 48 h
SK-MEL-5 = system: SK-MEL-5
SNB-75 = system: SNB-75
RXF 393 = system: RXF 393
NCI-H460 = system: NCI-H460
IGROV-1 = system: IGROV-1
SF-295 = system: SF-295
UO-31 = system: UO-31
NCI-H23 = system: NCI-H23
SF-268 = system: SF-268
SN12C = system: SN12C
RPMI-8226 = system: RPMI-8226
LOX IMVI = system: LOX IMVI
HT-29 = system: HT-29
OVCAR-8 = system: OVCAR-8
SK-MEL-2 = system: SK-MEL-2

Measured: GI50

COC(=O)/C=C/C1C(C(=O)OC)C2(C(=O)OC)CCC1(C(=O)OC)N2 (stereo unspecified)
inactive: SK-MEL-5 > 100 µM | SNB-75 > 100 µM | RXF 393 > 100 µM | NCI-H460 > 100 µM | IGROV-1 > 100 µM | SF-295 > 100 µM | UO-31 > 100 µM | NCI-H23 > 100 µM | SF-268 > 100 µM | SN12C > 100 µM | RPMI-8226 > 100 µM | LOX IMVI > 100 µM | HT-29 > 100 µM | OVCAR-8 > 100 µM | SK-MEL-2 > 100 µM

CC1=C(C(=O)Nc2ccccc2)C(c2ccc(Cl)c(Cl)c2)C(C(=O)Nc2ccccc2)=C(C)N1
inactive: SK-MEL-5 14 µM | SNB-75 14.2 µM | RXF 393 8.61 µM | NCI-H460 13 µM | IGROV-1 14.5 µM | SF-295 12.5 µM | UO-31 13.2 µM | NCI-H23 12.5 µM | SF-268 12 µM | SN12C 14.9 µM | LOX IMVI 14.2 µM | HT-29 12.2 µM | OVCAR-8 13.7 µM

CC(c1cccc2ccccc12)/[N+]([O-])=C/c1ccccc1 (stereo unspecified)
inactive: SK-MEL-5 > 100 µM | SNB-75 75 µM | RXF 393 > 100 µM | NCI-H460 > 100 µM | IGROV-1 > 100 µM | SF-295 > 100 µM | UO-31 39.6 µM | NCI-H23 > 100 µM | SF-268 > 100 µM | RPMI-8226 58.3 µM | LOX IMVI > 100 µM | HT-29 > 100 µM | OVCAR-8 > 100 µM | SK-MEL-2 > 100 µM

CSc1nnc(CCC(=O)Nc2c(C)cccc2C)o1
inactive: SK-MEL-5 > 100 µM | SNB-75 91.6 µM | RXF 393 > 100 µM | NCI-H460 > 100 µM | IGROV-1 > 100 µM | SF-295 > 100 µM | UO-31 > 100 µM | NCI-H23 > 100 µM | SF-268 > 100 µM | SN12C > 100 µM | RPMI-8226 > 100 µM | LOX IMVI > 100 µM | HT-29 > 100 µM | OVCAR-8 > 100 µM | SK-MEL-2 > 100 µM

COc1ccc2nc(NC(=O)C(=O)C(C#N)c3ccc(Cl)c(Cl)c3)sc2c1 (stereo unspecified)
inactive: SK-MEL-5 > 100 µM | SNB-75 45.3 µM | RXF 393 52.2 µM | NCI-H460 84.7 µM | IGROV-1 > 100 µM | SF-295 > 100 µM | UO-31 > 100 µM | NCI-H23 75.9 µM | SF-268 79.8 µM | SN12C > 100 µM | RPMI-8226 > 100 µM | LOX IMVI > 100 µM | HT-29 > 100 µM | OVCAR-8 > 100 µM | SK-MEL-2 > 100 µM

CCCCCCCCNC(=O)SCCCC
inactive: SK-MEL-5 21.3 µM | SNB-75 26.1 µM | RXF 393 24.3 µM | NCI-H460 28.4 µM | IGROV-1 46.5 µM | SF-295 38 µM | UO-31 26.5 µM | NCI-H23 38.5 µM | SF-268 34.9 µM | SN12C 37.8 µM | RPMI-8226 22.4 µM | LOX IMVI 19.9 µM | HT-29 20.8 µM | OVCAR-8 33.8 µM | SK-MEL-2 20.9 µM

CCCc1ccc(/N=C\c2cc(OC)c(OC)c(OC)c2)cc1
inactive: SK-MEL-5 > 100 µM | SNB-75 > 100 µM | RXF 393 > 100 µM | NCI-H460 > 100 µM | IGROV-1 > 100 µM | SF-295 > 100 µM | UO-31 > 100 µM | NCI-H23 > 100 µM | SF-268 > 100 µM | SN12C > 100 µM | RPMI-8226 24.4 µM | LOX IMVI > 52.1 µM | HT-29 > 87.7 µM | OVCAR-8 > 100 µM | SK-MEL-2 > 100 µM

CC(C)C(=O)/C=C/c1ccccc1
inactive: SK-MEL-5 67.3 µM | SNB-75 > 100 µM | RXF 393 > 100 µM | NCI-H460 50.6 µM | IGROV-1 > 100 µM | SF-295 91.2 µM | UO-31 > 100 µM | NCI-H23 63.8 µM | SF-268 > 100 µM | SN12C 79.3 µM | RPMI-8226 37.1 µM | LOX IMVI 83.6 µM | HT-29 53.5 µM | SK-MEL-2 > 100 µM

N#C/C(=C\c1ccc(O)cc1O)C(N)=O
inactive: SNB-75 16.7 µM | RXF 393 20.5 µM | NCI-H460 > 100 µM | IGROV-1 > 100 µM | SF-295 > 100 µM | UO-31 33.6 µM | NCI-H23 58.1 µM | SF-268 > 100 µM | SN12C > 100 µM | RPMI-8226 55.6 µM | LOX IMVI > 100 µM | HT-29 29.8 µM | OVCAR-8 > 100 µM | SK-MEL-2 98.4 µM

Nc1c([N+](=O)[O-])nc(Cl)c2nncn12
inactive: SK-MEL-5 > 100 µM | SNB-75 > 23.7 µM | RXF 393 > 100 µM | NCI-H460 > 56.6 µM | IGROV-1 > 100 µM | SF-295 > 100 µM | UO-31 > 100 µM | NCI-H23 > 100 µM | SF-268 > 87.9 µM | SN12C > 100 µM | RPMI-8226 > 47.1 µM | LOX IMVI > 43.8 µM | HT-29 96.8 µM | OVCAR-8 > 100 µM | SK-MEL-2 > 100 µM

Clc1ccc(C2SCc3nc4ccccc4n32)cc1Cl (stereo unspecified)
inactive: SK-MEL-5 9.08 µM | SNB-75 3.25 µM | RXF 393 4.2 µM | NCI-H460 13.5 µM | IGROV-1 17.3 µM | SF-295 11.9 µM | NCI-H23 12.6 µM | SF-268 15.9 µM | SN12C 12.6 µM | RPMI-8226 11.4 µM | LOX IMVI 13.1 µM | HT-29 15.1 µM | OVCAR-8 13.7 µM | SK-MEL-2 16.2 µM

CCOC(=O)/C(=C/c1ccc(C#N)cc1)N(CC)CC
inactive: SK-MEL-5 > 100 µM | SNB-75 > 100 µM | NCI-H460 > 100 µM | IGROV-1 > 100 µM | SF-295 1.88 µM | UO-31 > 100 µM | NCI-H23 > 100 µM | SF-268 > 100 µM | SN12C > 100 µM | RPMI-8226 > 100 µM | LOX IMVI > 100 µM | HT-29 > 100 µM | OVCAR-8 > 100 µM | SK-MEL-2 > 100 µM

CC(=O)N1CCC(=O)/C(=C/c2ccccc2)C1
inactive: SK-MEL-5 34 µM | SNB-75 37.1 µM | RXF 393 22.8 µM | NCI-H460 27.7 µM | IGROV-1 19.8 µM | SF-295 42.8 µM | UO-31 > 100 µM | NCI-H23 32.4 µM | SF-268 20.5 µM | SN12C 18.2 µM | RPMI-8226 42.7 µM | LOX IMVI 16.1 µM | HT-29 20.3 µM | OVCAR-8 21.2 µM

CN1COc2c(n(C)c(=O)[nH]c2=O)C1
inactive: SK-MEL-5 > 100 µM | SNB-75 > 100 µM | RXF 393 > 66.7 µM | NCI-H460 > 100 µM | IGROV-1 > 100 µM | SF-295 > 100 µM | UO-31 > 100 µM | NCI-H23 > 100 µM | SF-268 > 100 µM | SN12C > 100 µM | RPMI-8226 26.1 µM | HT-29 > 100 µM | OVCAR-8 > 95.7 µM | SK-MEL-2 > 100 µM

Reference: ChEMBL document CHEMBL1201862, “PubChem BioAssay data set” (2004)
